Measured values published in the RepoRT retention time repository (doi:10.1021/acs.analchem.2c02893).

assay: RP, Thermo Scientific Acclaim RSLC 120 C18, 100 × 2.1 mm, 2.2 µm, 30 °C, 0.2 mL/min, estimated dead time 1.1 min; A: 90% water + 10% methanol + 0.01% formic acid + 5 mM ammonium formate, pH 3.61; B: methanol + 0.01% formic acid + 5 mM ammonium formate, pH 3.61; gradient (min/%B) 0/1 1/1 2/39 13/99.9 15/99.9 15.1/1 20.1/1; details: stereoisomer not certain

`CCOP(=S)(OCC)SCS(=O)(=O)C(C)(C)C` [Terbufos sulfone] and `COP(=S)(OC)Oc1ccc(S(C)(=O)=O)c(C)c1` [Fenthion-sulfon] are within 1.5-fold of each other in LC retention time: 9.01 min for the first, 7.57 min for the second.

Going from `CC(=O)OCC(=O)C1(O)C(C)CC2C3CCC4=CC(=O)C=CC4(C)C3(F)C(O)CC21C` (configuration not stated) [Betamethasone acetate] to `CCOC(=O)C1C(OC(=O)c2ccccc2)CC2CCC1N2C` (configuration not stated) [Cocaethylene], the LC retention time falls from 9.37 min to 5.46 min (1.7-fold).

`Clc1ccc2c(c1)CCc1cccnc1C2=C1CCNCC1` [Desloratadine] and `c1ccc2c(c1)Cc1ccccc1N1CCNCC21` (configuration not stated) [Mianserine-Nor] are within 1.5-fold of each other in LC retention time: 7.48 min for the first, 6.86 min for the second.

Compared with `CN(C)C(=S)SSC(=S)N(C)C` [Thiram (Tetramethylthiuramdisulfide.TMTD)], `CCOC(=O)CCN(Cc1ccccc1)SN(C)C(=O)ON=C(C)SC` [Alanycarb] is 1.6-fold higher in LC retention time: 6.8 min for the first, 10.8 min for the second.

`CN1CCCCC1Cn1cc(C(=O)c2cccc3ccccc23)c2ccccc21` (configuration not stated) [AM-1220] and `O=C(O)CCCn1cc(C(=O)c2cccc3ccccc23)c2ccccc21` [JWH-073-M-N-Butanoic acid] are within 1.5-fold of each other in LC retention time: 8.09 min for the first, 9.33 min for the second.

`CC(C)CC(CN)CC(=O)O` (configuration not stated) [Pregabalin] and `CC(C)CNC(=O)N1CCNC1=O` [Isocarbamid (Azolamide)] are within 1.5-fold of each other in LC retention time: 3.88 min for the first, 5.74 min for the second.

`CCOC(=O)C(C)OC(=O)c1cc(Oc2ccc(C(F)(F)F)cc2Cl)ccc1[N+](=O)[O-]` (configuration not stated) [Lactofen] and `O=C(O)c1cc(Oc2ccc(C(F)(F)F)cc2Cl)ccc1[N+](=O)[O-]` [Acifluorfen] are within 1.5-fold of each other in LC retention time: 12.2 min for the first, 8.95 min for the second.

`CCNc1nc(NC(C)C)nc(OC)n1` [Atraton] and `COCCCNc1nc(NC(C)C)nc(SC)n1` [Methoprotryne] are within 1.5-fold of each other in LC retention time: 7.81 min for the first, 9.14 min for the second.

`Nc1ccc2c(c1)C(c1ccccc1F)=NCC(=O)N2` [Flunitrazepam-7-Amino-desmethyl] and `Nc1ccc2c(c1)C(c1ccccc1)=NCC(=O)N2` [Nitrazepam- 7-Amino] are within 1.5-fold of each other in LC retention time: 4.62 min for the first, 4.78 min for the second.

`OCCOCCN1CCN(C2=Nc3ccc(O)cc3Sc3ccccc32)CC1` [Quetiapine-Hydroxy] and `COc1ccccc1N1CCN(CCCC(=O)c2ccc(F)cc2)CC1` [Fluanisone] are within 1.5-fold of each other in LC retention time: 4.99 min for the first, 6.41 min for the second.

`O=C1C(CCS(=O)c2ccccc2)C(=O)N(c2ccccc2)N1c1ccccc1` (configuration not stated) [Sulfinpyrazone] and `c1cc[c]([Sn+]([c]2ccccc2)[c]2ccccc2)cc1` [Fentin (triphenylstannylium) (1+)] are within 1.5-fold of each other in LC retention time: 7.94 min for the first, 10.4 min for the second.

`CCCCOC(=O)c1ccccc1C(=O)OCCCC` [Phthalate-Di-n-butyl] and `CCCCOC(=O)c1ccccc1C(=O)OCc1ccccc1` [Phthalate-Benzyl butyl] are within 1.5-fold of each other in LC retention time: 12 min for the first, 12.4 min for the second.

`CCCCNc1cc(C(=O)O)cc(S(N)(=O)=O)c1Oc1ccccc1` [Bumetanide] and `O=C(CCCl)NCc1ccccc1` [Beclamide] are within 1.5-fold of each other in LC retention time: 7.83 min for the first, 6.27 min for the second.

Compared with `CN1CCCN=C1COC(=O)C(O)(c1ccccc1)C1CCCCC1` (configuration not stated) [Oxyphencyclimine], `CCC1(c2cccc(O)c2)CCCCN(C)C1` (configuration not stated) [Meptazinol] is 1.7-fold lower in LC retention time: 7.98 min for the first, 4.74 min for the second.

Compared with `CN1CCC23c4c5ccc(O)c4OC2CCCC3C1C5` (configuration not stated) [Desomorphine], `CC(C)C1(NC(=O)C2CC3c4cccc5[nH]cc(c45)CC3N(C)C2)OC2(O)C3CCCN3C(=O)C(Cc3ccccc3)N2C1=O` (configuration not stated) [Ergocristine-Dihydro] is 2.1-fold higher in LC retention time: 3.84 min for the first, 8.17 min for the second.

Compared with `CC1CCC2(OC1)OC1CC3C4CC=C5CC(O)CCC5(C)C4CCC3(C)C1C2C` (configuration not stated) [Diosgenin], `COc1c(N2CC3CCCNC3C2)c(F)cc2c(=O)c(C(=O)O)cn(C3CC3)c12` (configuration not stated) [Moxifloxacin] is 2.9-fold lower in LC retention time: 15.1 min for the first, 5.17 min for the second.

`COP(=O)(OC)OC(=CCl)c1ccc(Cl)cc1Cl` [Dimethylvinphos] and `COP(=S)(OC)Oc1ccc([N+](=O)[O-])c(Cl)c1` [Chlorthion] are within 1.5-fold of each other in LC retention time: 9.86 min for the first, 10.2 min for the second.

`CN(C)C(=O)Nc1ccc(Cl)cc1` [Monuron] and `CCC(=O)Nc1ccc(Cl)c(Cl)c1` [Propanil] are within 1.5-fold of each other in LC retention time: 6.9 min for the first, 9.38 min for the second.

Compared with `CCN(C(=O)SCc1ccccc1)C(C)C(C)C` (configuration not stated) [Esprocarb], `CCC(=O)OC(Cc1ccccc1)(c1ccccc1)C(C)CN(C)C` (configuration not stated) [Dextropropoxyphene] is 1.6-fold lower in LC retention time: 12.2 min for the first, 7.73 min for the second.

Going from `CCc1cccc(C)c1N(C(=O)CS(=O)(=O)O)C(C)C(=O)O` (configuration not stated) to `COCC(C)N(C(=O)CS(=O)(=O)O)c1c(C)csc1C` (configuration not stated) [Dimethenamide-ESA], the LC retention time falls from 10.9 min to 6.28 min (1.7-fold).

First: CN(C)C1C(=O)C(C(N)=O)=C(O)C2(O)C(=O)C3=C(O)c4c(O)cccc4C(C)(O)C3C(O)C12 (configuration not stated) [Oxytetracycline]
Second: CCCCCC(=O)c1ccc(O)cc1O [Caproylresorcinol]
The LC retention time of the first is 2.3-fold lower: 4.6 min for the first, 10.4 min for the second.

`C#CCOS(=O)OC1CCCCC1Oc1ccc(C(C)(C)C)cc1` (configuration not stated) [Propargite] and `CC(Cc1ccc(C(C)(C)C)cc1)CN1CCCCC1` (configuration not stated) [Fenpropidin] are within 1.5-fold of each other in LC retention time: 12.8 min for the first, 8.62 min for the second.

Compared with `Cc1ccc(N=CN(C)C=Nc2ccc(C)cc2C)c(C)c1` [Amitraz], `Cc1ccc(C2(c3ccccc3)NC(=O)NC2=O)cc1` (configuration not stated) [MPPH (5-(p-Methylphenyl)-5-phenylhydantoin)] is 1.6-fold lower in LC retention time: 13.3 min for the first, 8.12 min for the second.

`CCOc1ccc(NC(=O)OC(C)C)cc1OCC` [Diethofencarb] and `CCNC(=O)C(C)OC(=O)Nc1ccccc1` (configuration not stated) [Carbetamide] are within 1.5-fold of each other in LC retention time: 9.04 min for the first, 6.58 min for the second.

Going from `CCCCCCCC[N+](C)(C)C` [Trimethyloctylammonium] to `CCCCCCCCCCCC[N+](C)(C)[O-]` [N,N-Dimethyldodecylamine N-oxide], the LC retention time rises from 6.08 min to 11.2 min (1.8-fold).

`CC(C)Nc1nc(Cl)nc(NC2CC2)n1` [Cyprazin] and `CNC1CCC(c2ccc(Cl)c(Cl)c2)c2ccccc21` (configuration not stated) [Sertraline] are within 1.5-fold of each other in LC retention time: 8.22 min for the first, 8.94 min for the second.

Going from `COc1ccccc1OCC(O)COC(N)=O` (configuration not stated) [Methocarbamol] to `CCON=C(OC(=O)c1ccccc1)c1c(OC)ccc(Cl)c1OC` [Benzoximate], the LC retention time rises from 5.21 min to 11.3 min (2.2-fold).

`CC(NCCC(c1ccccc1)c1ccccc1)c1ccccc1` (configuration not stated) [Fendiline] and `C(=Cc1ccccc1)CN1CCN(C(c2ccccc2)c2ccccc2)CC1` [Cinnarizine] are within 1.5-fold of each other in LC retention time: 8.54 min for the first, 9.86 min for the second.

Compared with `CCOC(=O)CC(O)(CC(=O)OCC)C(=O)OCC` [Triethylcitrate], `CCC(C)(NC(=O)c1cc(Cl)c(C)c(Cl)c1)C(=O)CCl` (configuration not stated) [Zoxamide] is 1.6-fold higher in LC retention time: 6.94 min for the first, 11.1 min for the second.

`COCC(=O)Nc1c(I)c(C(=O)NCC(O)CO)c(I)c(C(=O)N(C)CC(O)CO)c1I` (configuration not stated) [Iopromid] and `CCN1CCCC1CNC(=O)c1c(OC)ccc(Br)c1OC` (configuration not stated) [Remoxipride] are within 1.5-fold of each other in LC retention time: 3.38 min for the first, 5.06 min for the second.

Going from `CCCN(CCC)c1c([N+](=O)[O-])cc(C(C)C)cc1[N+](=O)[O-]` [Isopropalin] to `COc1cc(NC(C)CCCN)c2ncccc2c1` (configuration not stated) [Primaquine], the LC retention time falls from 13.2 min to 6.82 min (1.9-fold).

`Nc1ncnc2nc[nH]c12` [Adenine] and `Nc1cn[nH]c(=O)c1Cl` [Desphenyl chloridazon] are within 1.5-fold of each other in LC retention time: 2.43 min for the first, 2.32 min for the second.

`CC=CC(=O)N(CC)c1ccccc1C` [Crotamiton] and `CN(C)c1ccccc1` [Dimethylanilin (N.N-)] are within 1.5-fold of each other in LC retention time: 9.24 min for the first, 6.26 min for the second.

`Cc1ccc(C(=CCN2CCCC2)c2ccccn2)cc1` [Triprolidine] and `CN(c1nccc(=O)[nH]1)C1CCN(c2nc3ccccc3n2Cc2ccc(F)cc2)CC1` [Mizolastine] are within 1.5-fold of each other in LC retention time: 6.28 min for the first, 9.14 min for the second.

`COc1ccc(C(CN)C2(O)CCCCC2)cc1` [Venlafaxine- D L-N N-Didesmethyl] and `CCC1(c2ccc(N)cc2)CCC(=O)NC1=O` (configuration not stated) [Aminoglutethimide] are within 1.5-fold of each other in LC retention time: 6.34 min for the first, 4.99 min for the second.

First: Cn1c(-c2ccccc2)cc(-c2ccccc2)[n+]1C [Difenzoquat (Ion 1+)]
Second: CN=C1CN(O)C(c2ccccc2)=c2cc(Cl)ccc2=N1 [Chlordiazepoxide]
The LC retention time of the first is 1.7-fold lower: 5.21 min for the first, 8.79 min for the second.

Compared with `N#Cc1nn(-c2c(Cl)cc(C(F)(F)F)cc2Cl)c(N)c1C(F)(F)F` [Fipronil-desulfinyl], `NC(CC(=O)N1CCn2c(nnc2C(F)(F)F)C1)Cc1cc(F)c(F)cc1F` (configuration not stated) [Sitagliptin] is 2-fold lower in LC retention time: 10.4 min for the first, 5.08 min for the second.

First: Nc1ccn(C2OC(CO)C(O)C2O)c(=O)n1 (configuration not stated) [Cytarabin]
Second: Nc1nc(=O)n(C2CSC(CO)O2)cc1F (configuration not stated) [Emtricitabine]
The LC retention time of the first is 2.5-fold lower: 1.39 min for the first, 3.41 min for the second.

First: Nc1cnn(-c2ccccc2)c(=O)c1Cl [Chloridazone]
Second: Nc1ccc(N=Nc2ccccc2)c(N)n1 [Phenazopyridine]
The LC retention time of the first is 1.6-fold lower: 5.34 min for the first, 8.49 min for the second.

Compared with `CCCCCn1nc(C(=O)NC23CC4CC(CC(C4)C2)C3)c2ccccc21` [AKB48 (APINACA)], `NC(=O)N1c2ccccc2CC(=O)c2ccccc21` [Oxcarbazepine] is 2.2-fold lower in LC retention time: 14 min for the first, 6.46 min for the second.

`CCCCCCCCCCCCNC` [N-Methyldodecylamine] and `CCCC(Cn1cncn1)c1ccc(Cl)cc1Cl` (configuration not stated) [Penconazole] are within 1.5-fold of each other in LC retention time: 10.5 min for the first, 10.8 min for the second.

`CC(CS)C(=O)N1CCCC1C(=O)O` (configuration not stated) [Captopril] and `Cn1c([N+](=O)[O-])cnc1COC(N)=O` [Ronidazole] are within 1.5-fold of each other in LC retention time: 4.59 min for the first, 3.55 min for the second.

Compared with `COc1cc(CCN)c(OC)cc1Cl` [2C-C], `COP(=S)(OC)Oc1ccc(S(=O)(=O)N(C)C)cc1` [Famphur] is 1.5-fold higher in LC retention time: 5.28 min for the first, 7.99 min for the second.

In the case of `NC(N)=NS(=O)(=O)c1ccc(N)cc1` [Sulfaguanidine], the LC retention time is reported as 1.93 min.
